# According to patent US9131687B2, “Roseobacticides and uses thereof” (PRESIDENT AND FELLOWS OF HARVARD COLLEGE, priority 2010, dated 2015):
# Values joined by “and” are separate entries in the source; they are usually repeats but may differ in a detail not shown here. Equal entries are not always repeated. Where two headings read alike, the source gives them in different places.
# Tests used:
# P. gallaeciensis BS107 = assay: Elicitation of roseobacticide production, HPLC-MS; type: cell-based, Phaeobacter gallaeciensis BS107; details: for secondary metabolite production by HPLC-MS: P. gallaeciensis BS107 incubated with elicitor; for EC50: Phaeobacter gallaeciensis
# Experimental: (§1) Roseobacter (Phaeobacter gallaeciensis BS107, Ruegeria sp. R11 and Silicibacter pomeroyi DSS3) and other marine strains (see Table 4) were streaked out from frozen stocks and maintained on Marine Broth (Difco 2216) supplemented with 1.5% agar and incubated at 30° C. for two days. A 50 mL test tube containing 5 mL of ½ strength yeast extract, tryptone and sea salt medium (YTSS, per L: 2 g yeast extract, 1.25 g tryptone, 20 g sea salt) was inoculated with each strain and grown overnight at 30° C. on a horizontal rotating drum fermenter. A 500 mL Erlenmeyer flask containing 50 mL of YTSS medium and 0-3 mM pCA was inoculated with 0.5 mL of the overnight culture and incubated at 160 rpm and 30° C. for 3 d. After 3 d, each culture was extracted once with an equal volume of ethyl acetate, dried in vacuo, resuspended in methanol and analyzed by HPLC-MS as described above.
# Preparative-scale (2-8 L) cultivation of P. gallaeciensis BS107 (or other roseobacter strains) was carried out in half-strength yeast extract-tryptonesea salt (YTSS) medium, which consists of (per L): 20 g Sigma sea salt, 2 g yeast extract, and 1.25 g tryptone. P. gallaeciensis BS107 (or other roseobacter strains) were streaked out from frozen culture stocks and maintained on Marine Broth agar plates (Difco 2216) at 30° C. Overnight cultures were initiated by inoculating 5 mL YTSS medium in 15 mL culture tubes and shaking these overnight at 250 rpm and 30° C. A 0.5 L Erlenmeyer flask containing 50 mL YTSS medium was inoculated with 0.5 mL of the overnight culture and grown for 12-18 h at 30° C. and 160 rpm. Large 4 L Erlenmeyer flasks, each containing 0.4 L YTSS medium, were inoculated with 4 mL of the overnight culture and supplemented with 1 mM of each of the elicitors (14-18). The cultures were grown for 3 d at 30° C. and roseobacticides purified as described below.
# Eight to ten 0.25 L Erlenmeyer flasks each containing 25 mL of YTSS medium and a range of elicitor concentrations (between 0 and 1.2 mM) were inoculated with 0.25 mL of an overnight P. gallaeciensis BS107 culture prepared as described above. These were grown at 30° C. and 160 rpm. After 3 d, each culture was extracted twice with 25 mL of EtOAc. The organic phase was combined, dried over Na2SO4, and subsequently dried in vacuo. The residue was resuspended in 0.3 mL MeOH and analyzed by HPLC-MS as described above. The amount of roseobacticide B (7) produced, which was quantified by massion extraction ([M+H]^+=269), was plotted against the concentration of the elicitor. The maximal amount of 7 was normalized to 100%, and the EC50, the elicitor concentration where production of 7 was half-maximal, was obtained by fitting the data to equation 1, where Bmax and Bmin are the maximal (˜100%) and minimal (˜0%) amounts of 7 and p is a Hill slope parameter to account for variations in the slope. Bmax and Bmin were allowed to vary to obtain the optimal fit as judged by the R^2 correlation value.
# Bacillus subtilis 3610 = assay: IC50 of Roseobacticide A against selected bacterial strains (disc diffusion / 96 well plate); type: cell-based
# Experimental: (§2) Selected bacterial strains (see Table 4) were tested against Roseobacticide A using the disc diffusion assay (Gauvreau, D. & Waring, M., 1982, J. Appl. Microbiol. Biotechnol. 115:104-110). Overnight cultures of each test strain in YTSS were diluted 1000-fold into YTSS containing 0.7% agar and poured into standard Petri dish plates. Blank paper discs (8 mm, Fisher Scientific) were loaded with 50 μg of phaeobactin A and placed on top of the agar. The plates were incubated at 30° C. for 12-24 h and the presence or absence of an inhibition zone was monitored visually. Ampicillin (0.5 μg) and MeOH were used as positive and negative controls, respectively. In addition, the assay was carried out in 96 well plates according to the 2003 guidelines of the Clinical and Laboratory Standards Institute (CLSI, formerly NCCLS) with minor changes.
# (§3) Roseobacters were grown and tested in YTSS medium, B. subtilis 3610 in LB, and P. tunicate D2 in Marine Broth (Difco 2216). Inocula for each test organism were prepared by suspending a colony from an agar plate into 5 mL of YTSS, LB, or Marine Broth in 15 mL bacterial culture tubes. These were grown overnight, and then adjusted to 1×10^8 cells/mL. These cell suspensions were used as inocula for 96 well plate assays: 10 μL of inoculum, corresponding to 1×10^6 cells was added to 90 μL of the appropriate medium and supplemented with 10 μL medium (negative control), 10 μL of MeOH (negative control), 10 μL of 0.5 mg/mL, or 0.25 mg/mL of Roseobacticide A. The assay against each test strain was carried out in duplicate. The plate was incubated without shaking for 24 hours at 30° C., and the OD650 nm determined on a Molecular Devices 96 well plate reader. […] The OD650 nm for the wells containing Roseobacticide A in all each cases was between 80-100% of the value determined for the respective negative controls.
# [1] = test system: Phaeobacter gallaeciensis 2.10; assay: as above; type: cell-based
# Experimental: as §2, §3
# [2] = test system: Phaeobacter gallaeciensis BS107; assay: as above; type: cell-based
# Experimental: as §2, §3
# [3] = test system: Pseudoalteromonas tunicata D2; assay: as above; type: cell-based
# Experimental: as §2, §3
# Reugeria sp. R11 = assay: as above; type: cell-based
# Experimental: as §2, §3
# [4] = test system: Silicibacter pomeroyi DSS3; assay: as above; type: cell-based; details: Ruegeria pomeroyi
# Experimental: as §2, §3
# Silicibacter sp. TM1040 = assay: as above; type: cell-based
# Experimental: as §2, §3
# Vibrio anguillarum = assay: as above; type: cell-based
# Experimental: as §2, §3
# [5] = test system: Chaetoceros muelleri CCMP1318; assay: Algaecidal assay, cell counts by flow cytometry and microscopy; type: cell-based
# Experimental: (§4) The algaecidal effect of Roseobacticide A and B was tested against five axenic microalgae (the Prymnesiophytes Emiliana huxleyi (CCMP372) and Isochrysis sp. (CCMP468), the green alga Tetraselmis suecica (CCMP908), the diatom Chaetoceros muelleri (CCMP1318) and the cryptomonad Rhodomonas salina (CCMP1319)). All strains were grown on L1 media except for CCMP1318, which was grown in L1+Si (Guillard, R. R. L. & Hargraves, P. E., 1993, Phycologia 32: 234-236). All strains were maintained at 24° C. under 12 h:12 h light:dark illumination.
# (§5) To perform assays, algal cultures were diluted 1:1 with the medium they were grown in and then 1 mL aliquots were placed in a 48 well microtitre plate and treated with 0.01-0.000000001 mg/mL of Roseobacticide A or B, or alternatively with MeOH solvent, or medium (as controls) and incubated for 24 h at 24° C. under 12 h: 12 h light:dark illumination. Each treatment was monitored microscopically at 2, 12 and 24 h. Cell counts were determined by flow cytometry and compared to the solvent control.
# (§6) Flow cytometry. For flow cytometry counts, duplicate 0.5 ml samples were fixed with 0.125% (vol/vol) glutaraldehyde in the dark for 10 min. Cells were then frozen in an ethanol dry ice bath and stored at −80° C. until analyzed. Cell concentrations were measured with an EPICS flow cytometer using red fluorescence and forward angle light scattering properties to identify the cells as previously described (Cavender-Bares, K. K., et al., 1998, Limnol. Oceanogr. 43:1383-1388).
# Emiliana huxleyi CCMP372 = assay: as above; type: cell-based; details: for IC50: Emiliana huxleyi CCMP372, 24 h, flow cytometry; for algal cell population damaged yet intact: lowest Roseobacticide concentration tested, microscopy; for effect of incubation on E. huxleyi cells: microscopy at 12 and 24 h
# Experimental: as §4, §5, §6
# Isochrysis sp. CCMP468 = assay: as above; type: cell-based; details: Isochrysis sp. CCMP468, 24 h, flow cytometry
# Experimental: as §4, §5, §6
# [6] = test system: Rhodomonas salina CCMP1319; assay: as above; type: cell-based; details: for IC50: Rhodomonas salina CCMP1319, 24 h, flow cytometry
# Experimental: as §4, §5, §6
# [7] = test system: Tetraselmis suecica CCMP908; assay: as above; type: cell-based; details: Tetraselmis suecica CCMP908, 24 h, flow cytometry
# Experimental: as §4, §5, §6
# [8] = test system: panel of marine bacteria and B. subtilis 3610; assay: Antibacterial assay against the whole panel of test strains (96 well plate, OD650); type: cell-based; details: 10 μL of 0.5 mg/mL or 0.25 mg/mL, 24 hours, 30° C., all test strains
# Experimental: as §2
# Roseobacters were grown and tested in YTSS medium, B. subtilis 3610 in LB, and P. tunicate D2 in Marine Broth (Difco 2216). […] The plate was incubated without shaking for 24 hours at 30° C., and the OD650 nm determined on a Molecular Devices 96 well plate reader. […] The OD650 nm for the wells containing Roseobacticide A in all each cases was between 80-100% of the value determined for the respective negative controls.
# algae = assay: Algicidal activity (lysis of algae), summary over algae; type: cell-based; details: read-out: LC50 range, algicidal activity
# Experimental: as §4, §5
# as §6, with “For flow cytometry counts, duplicate 0.5 ml samples were fixed with 0.125% (vol/vol) glutaraldehyde in the dark for 10 min.” left out
# P. gallaeciensis = assay: Growth (OD650 nm) of P. gallaeciensis cultivated with pCA; type: cell-based, Phaeobacter gallaeciensis; details: 1 mM pCA, YTSS medium, 3 d, triplicate
# Experimental: as §1
# The profiles shown in FIG. 1B have not been corrected for the lower cell density observed in the presence of pCA.
# S. pomeroyi DSS-3 = assay: pCA-dependent changes of HPLC-MS profile; type: cell-based, Silicibacter pomeroyi DSS-3; details: 0.1-3 mM pCA
# Experimental: as §1
# (§7) The inventors cultured three roseobacter strains—S. pomeroyi DSS-3, Ruegeria sp. R11, and P. gallaeciensis BS107—in the presence of varying pCA concentrations (0.1-3 mM). At various time points, the cultures were extracted with ethyl acetate and analyzed by HPLC-MS. The HPLC-MS profiles from S. pomeroyi and Ruegeria sp. […] In the absence of pCA, these compounds were not produced by P. gallaeciensis under any of the conditions that were investigated.
# Ruegeria sp. R11 = assay: pCA-dependent changes of HPLC-MS profile; type: cell-based; details: 0.1-3 mM pCA
# Experimental: as §1, §7
# [9] = BS107, 72 h, 3 d culture, HPLC-MS ion extraction, read-out: EC50, elicitor concentration where production of roseobacticide B (7) is half-maximal
smiles,measurement,setting,value
"COc1cc(/C=C/C(=O)O)cc(OC)c1O [Roseobacticide 15, sinapic acid]",secondary metabolite production by HPLC-MS,P. gallaeciensis BS107,production of a variety of new metabolites
same,EC50,P. gallaeciensis BS107; [9],430 ± 30 µM
CSc1cccc2c(-c3ccc(O)cc3)c(=O)oc-2c1 [Roseobacticide A],IC50,Bacillus subtilis 3610,> 160 µM
same,IC50,[1],> 160 µM
same,IC50,[2],> 160 µM
same,IC50,[3],> 160 µM
same,IC50,Reugeria sp. R11,> 160 µM
same,IC50,[4],> 160 µM
same,IC50,Silicibacter sp. TM1040,> 160 µM
same,IC50,Vibrio anguillarum,> 160 µM
same,effect on C. muelleri cell shape,"[5]; 3.5 μM, 24 h",major morphological changes
same,IC50,"[5]; Chaetoceros muelleri CCMP1318, 24 h, flow cytometry",> 35 µM
same,IC50,Emiliana huxleyi CCMP372,≥ 2.2 µM
same,algal cell population damaged yet intact,Emiliana huxleyi CCMP372,20%
same,effect of incubation on E. huxleyi cells,Emiliana huxleyi CCMP372,"cell lysis after 24 h, with cellular damage visible after 12 h"
same,IC50,Isochrysis sp. CCMP468,> 35 µM
same,IC50,[6],≥ 0.1 µM
same,IC50,"[6]; Rhodomonas salina, 24 h",0.1 µM
same,susceptibility of the R. salina population,"[6]; dose response, micrographs",Only a subpopulation appears to be susceptible
same,IC50,[7],> 35 µM
same,OD650 nm relative to the respective negative controls,[8],80-100%
same,CC50,algae,0.1 to 35 µM
CSc1cccc2c(-c3c[nH]c4ccccc34)c(=O)oc-2c1 [Roseobacticide C],initial bioassays against E. huxleyi,Emiliana huxleyi CCMP372,potent antialgal compounds
CSc1ccccc2c(-c3ccccc3)c(=O)oc1-2 [Roseobacticide B],IC50,Emiliana huxleyi CCMP372,0.19 µM and ≥ 0.19 µM
same,algal cell population damaged yet intact,Emiliana huxleyi CCMP372,48%
same,effect of incubation on E. huxleyi cells,Emiliana huxleyi CCMP372,"cell lysis after 24 h, with cellular damage visible after 12 h"
"COc1cc(/C=C/C(=O)O)ccc1O [Roseobacticide 16, ferulic acid]",secondary metabolite production by HPLC-MS,P. gallaeciensis BS107,production of a variety of new metabolites
same,EC50,P. gallaeciensis BS107; [9],160 ± 20 µM
"O=C(O)/C=C/c1ccc(O)cc1 [pCA, p-coumaric acid]",secondary metabolite production by HPLC-MS,P. gallaeciensis BS107,stimulated the production of a family of compounds
same,secondary metabolite production by HPLC-MS,P. gallaeciensis BS107; listed as 14,production of a variety of new metabolites
same,EC50,P. gallaeciensis BS107; [9],790 ± 30 µM
same,EC50,"P. gallaeciensis BS107; BS107, FIG. 1C, average of two measurements, read-out: EC50, dose-response of (6) as a function of [pCA]",790 ± 30 µM
same,OD650 nm lower than cultures without pCA,P. gallaeciensis,17±8%
same,changes of HPLC-MS profile,S. pomeroyi DSS-3,no significant pCA-dependent changes
same,changes of HPLC-MS profile,Ruegeria sp. R11,no significant pCA-dependent changes
CSSc1cccc2c(-c3ccccc3)c(=O)oc-2c1 [Roseobacticide E],initial bioassays against E. huxleyi,Emiliana huxleyi CCMP372,potent antialgal compounds
